The source of these data is ChEMBL document CHEMBL4602715, “Efficacy and Tolerability of Pyrazolo[1,5-a]pyrimidine RET Kinase Inhibitors for the Treatment of Lung Adenocarcinoma” (ACS Med Chem Lett, 2020).

The structures appear in SMILES notation. Converted amounts (≈) assume the structure as drawn. The source made the active and inactive calls. The rule behind the calls is not given here. Some results are limits rather than exact numbers.

One data set relates to LC-2-ad. Kind of data set: Cytotoxicity against human LC2/ad cells assessed as reduction in cell viability incubated for 6 days by CellTiter Glo assay. It counts as cell-based. Conditions: 144 h.
The nature of data set [1]: Aqueous solubility of compound at pH 6.8 incubated for 24 hrs by HPLC/UV analysis. It counts as physicochemical.
A short description of data set [2]: Oral bioavailability in BALB/c mouse at 20 mg/kg measured upto 24 hrs by LC-MS/MS analysis. It counts as ADME, organism-based. Conditions: in vivo.
Data set [3] can be described thus: Cmax in BALB/c mouse at 20 mg/kg, po measured upto 24 hrs by LC-MS/MS analysis. On the set-up: dose 20 mg/kg, route oral. The class given is ADME, organism-based. Conditions: in vivo.
The subject of data set [4] is Rattus norvegicus. Nature of the data set: Antitumor activity against rat RIE cells transfected with KIF5B/RET xenografted in Harlan Foxn1 nude mouse assessed as inhibition of tumor growth at 3 mg/kg, po administered bid for 8 days. The class given is functional, organism-based.
Data set [5] is described as follows: Clearance in BALB/c mouse at 5 mg/kg, iv measured upto 24 hrs by LC-MS/MS analysis. The class given is ADME, organism-based. To be noted: in vivo.
The nature of data set [6]: Ratio of AUC in BALB/c mouse brain to plasma at 20 mg/kg, po measured upto 24 hrs by LC-MS/MS analysis. The class given is ADME, organism-based. Conditions: brain and plasma.
Data set [7] has as its system Rattus norvegicus. Nature of the data set: Antitumor activity against rat RIE cells transfected with KIF5B/RET xenografted in Harlan Foxn1 nude mouse assessed as tumor stasis at 10 mg/kg, po administered bid for 8 days. It counts as functional, organism-based.
Data set [8] in a line: AUC in BALB/c mouse at 20 mg/kg, po measured upto 24 hrs by LC-MS/MS analysis. On the set-up: dose 20 mg/kg, time < 24 hr, route oral. The class given is ADME, organism-based. To be noted: in vivo.
Data set [9] is described as follows: Drug uptake in tumor of Harlan Foxn1 nude mouse xenografted with rat RIE cells transfected with KIF5B/RET at 3 to 30 mg/kg, po administered bid for 8 days by LC-MS/MS analysis. It counts as ADME, organism-based, Neoplasm. Conditions: in vivo, 192 h.
The nature of data set [10]: Half life in BALB/c mouse at 20 mg/kg, po measured upto 24 hrs by LC-MS/MS analysis. The class given is ADME, organism-based. Conditions: in vivo.
Data set [11] in a line: Ratio of Cmax in BALB/c mouse brain to plasma at 20 mg/kg, po measured upto 24 hrs by LC-MS/MS analysis. The class given is ADME, organism-based. To be noted: brain and plasma.
Data set [12] relates to Rattus norvegicus. Nature of the data set: Antitumor activity against rat RIE cells transfected with KIF5B/RET xenografted in Harlan Foxn1 nude mouse assessed as tumor regression at 30 mg/kg, po administered bid for 8 days. It counts as functional, organism-based.
Data set [13] deals with T1, Voltage-gated inwardly rectifying potassium channel KCNH2 (Homo sapiens, UniProt Q12809). Nature of the data set: Inhibition of human ERG expressed in human embryonic kidney cells by manual patch clamp assay. To be noted: read-out: IC50. It counts as cell-based.
Data set [14] is described as follows: Cmax in BALB/c mouse at 5 mg/kg, iv measured upto 24 hrs by LC-MS/MS analysis. The class given is ADME, organism-based. On the set-up: dose 5 mg/kg, route intravenous. Conditions: in vivo.
Data set [15] can be described thus: Toxicity in Harlan Foxn1 nude mouse xenografted with rat RIE cells transfected with KIF5B/RET assessed as adverse events at 3 to 30 mg/kg, po administered bid for 8 days. It counts as organism-based. Conditions: in vivo, 192 h.
A short description of data set [16]: Half life in BALB/c mouse at 5 mg/kg, iv measured upto 24 hrs by LC-MS/MS analysis. It counts as ADME, organism-based. To be noted: in vivo.
Data set [17] deals with Mus musculus. Nature of the data set: In vivo inhibition of KIF5B/RET transfected in rat RIE cells xenografted in Harlan Foxn1 nude mouse assessed as reduction in RET phosphorylation at 30 mg/kg, po administered bid for 8 days and measured on day 8 after 24 hrs of dosing by Western blot analysis. It counts as functional, organism-based. Background: Immunoblotting shows a protein as a band on a membrane.

Data set [18] is described as follows: Volume of distribution at steady state in BALB/c mouse at 5 mg/kg, iv measured upto 24 hrs by LC-MS/MS analysis. The class given is ADME, organism-based. Conditions: in vivo, read-out: Vdss.
A short description of data set [19]: Drug uptake in plasma of Harlan Foxn1 nude mouse xenografted with rat RIE cells transfected with KIF5B/RET at 3 to 30 mg/kg, po administered bid for 8 days by LC-MS/MS analysis. It counts as ADME, organism-based. Conditions: in vivo, 192 h.
For data set [20], the system named is Mus musculus. Nature of the data set: In vivo inhibition of KIF5B/RET transfected in rat RIE cells xenografted in Harlan Foxn1 nude mouse assessed as reduction in RET phosphorylation at 30 mg/kg, po administered bid for 8 days and measured on day 8 after 5 hrs of dosing by Western blot analysis. The class given is functional, organism-based.
Data set [21] in a line: AUC in BALB/c mouse at 5 mg/kg, iv measured upto 24 hrs by LC-MS/MS analysis. The class given is ADME, organism-based. Set-up: dose 5 mg/kg, time < 24 hr, route intravenous. Conditions: in vivo.
Data set [22] addresses T1, Voltage-gated inwardly rectifying potassium channel KCNH2. Kind of data set: Displacement of [3H]-dofetilide from human ERG expressed in CHO cells incubated for 90 mins by microbeta scintillation counting method. The class given is cell-based.
The target in a further data set is Bcr/Abl fusion protein (Homo sapiens, UniProt P00519). Kind of data set: Inhibition of BCR/ABL (unknown origin) transfected in mouse Ba/F3 cells assessed as reduction in cell viability incubated for 48 hrs by brightglo-luciferase reporter gene assay. The class given is cell-based, BaF3. (Reporter assays use an easily measured gene product as a stand-in for the process of interest.)

Another data set has as its system BaF3. Nature of the data set: Cytotoxicity against mouse BA/F3 cells assessed as reduction in cell viability incubated for 48 hrs by brightglo-luciferase reporter gene assay. The class given is cell-based. To be noted: BaF3, 48 h.
A short description of data set [23]: Oral bioavailability in BALB/c mouse at 10 mg/kg measured upto 24 hrs by LC-MS/MS analysis. The class given is ADME, organism-based. To be noted: in vivo.
Data set [24] in a line: Half life in BALB/c mouse at 10 mg/kg, po measured upto 24 hrs by LC-MS/MS analysis. It counts as ADME, organism-based. Conditions: in vivo.
The nature of data set [25]: Half life in BALB/c mouse at 2 mg/kg, iv measured upto 24 hrs by LC-MS/MS analysis. The class given is ADME, organism-based. To be noted: in vivo.
Data set [26] is described as follows: Volume of distribution at steady state in BALB/c mouse at 2 mg/kg, iv measured upto 24 hrs by LC-MS/MS analysis. The class given is ADME, organism-based. Conditions: in vivo, read-out: Vdss.
The nature of data set [27]: Clearance in BALB/c mouse at 2 mg/kg, iv measured upto 24 hrs by LC-MS/MS analysis. The class given is ADME, organism-based. Conditions: in vivo.
A short description of data set [28]: Cmax in BALB/c mouse at 2 mg/kg, iv measured upto 24 hrs by LC-MS/MS analysis. It counts as ADME, organism-based. On the set-up: dose 2 mg/kg, route intravenous. Conditions: in vivo.
A short description of data set [29]: AUC in BALB/c mouse at 2 mg/kg, iv measured upto 24 hrs by LC-MS/MS analysis. The class given is ADME, organism-based. On the set-up: dose 2 mg/kg, time < 24 hr, route intravenous. To be noted: in vivo.
Data set [30] in a line: AUC in BALB/c mouse at 10 mg/kg, po measured upto 24 hrs by LC-MS/MS analysis. It counts as ADME, organism-based. On the set-up: dose 10 mg/kg, time < 24 hr, route oral. To be noted: in vivo.
Data set [31] is described as follows: Cmax in BALB/c mouse at 10 mg/kg, po measured upto 24 hrs by LC-MS/MS analysis. The class given is ADME, organism-based. Set-up: dose 10 mg/kg, route oral. Conditions: in vivo.

T1 sequence (Q12809 whole entry): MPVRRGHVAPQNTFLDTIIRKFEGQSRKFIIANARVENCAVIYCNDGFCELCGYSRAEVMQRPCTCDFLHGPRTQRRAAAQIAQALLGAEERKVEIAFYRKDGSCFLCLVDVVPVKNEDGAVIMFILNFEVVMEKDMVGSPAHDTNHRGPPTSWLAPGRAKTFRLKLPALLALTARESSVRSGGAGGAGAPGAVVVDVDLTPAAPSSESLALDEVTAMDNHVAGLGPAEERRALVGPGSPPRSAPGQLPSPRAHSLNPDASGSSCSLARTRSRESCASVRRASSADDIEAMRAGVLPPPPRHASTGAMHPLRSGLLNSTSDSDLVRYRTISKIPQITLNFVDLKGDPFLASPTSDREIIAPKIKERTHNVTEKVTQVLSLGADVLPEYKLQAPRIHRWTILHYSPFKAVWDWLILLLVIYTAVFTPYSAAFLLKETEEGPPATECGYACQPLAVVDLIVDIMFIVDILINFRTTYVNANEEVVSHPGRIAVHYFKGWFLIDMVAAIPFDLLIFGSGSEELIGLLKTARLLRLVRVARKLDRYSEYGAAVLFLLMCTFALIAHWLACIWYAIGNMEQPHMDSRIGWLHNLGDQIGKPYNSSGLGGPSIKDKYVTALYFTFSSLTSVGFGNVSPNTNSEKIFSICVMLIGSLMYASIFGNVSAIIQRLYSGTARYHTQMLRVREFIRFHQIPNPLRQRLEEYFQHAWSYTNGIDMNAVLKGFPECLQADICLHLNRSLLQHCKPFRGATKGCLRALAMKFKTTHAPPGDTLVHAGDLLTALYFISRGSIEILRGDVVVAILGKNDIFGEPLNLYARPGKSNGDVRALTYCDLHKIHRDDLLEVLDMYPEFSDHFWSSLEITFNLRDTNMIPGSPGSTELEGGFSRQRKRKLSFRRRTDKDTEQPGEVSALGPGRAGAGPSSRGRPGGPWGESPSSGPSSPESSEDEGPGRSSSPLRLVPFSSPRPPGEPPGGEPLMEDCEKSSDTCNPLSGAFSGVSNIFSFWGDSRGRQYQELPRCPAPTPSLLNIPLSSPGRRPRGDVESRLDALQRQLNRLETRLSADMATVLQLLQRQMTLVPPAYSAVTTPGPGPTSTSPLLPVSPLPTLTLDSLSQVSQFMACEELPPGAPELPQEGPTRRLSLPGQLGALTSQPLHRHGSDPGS
Sequence of Bcr/Abl fusion protein (P00519 whole entry, the tested form may be a part): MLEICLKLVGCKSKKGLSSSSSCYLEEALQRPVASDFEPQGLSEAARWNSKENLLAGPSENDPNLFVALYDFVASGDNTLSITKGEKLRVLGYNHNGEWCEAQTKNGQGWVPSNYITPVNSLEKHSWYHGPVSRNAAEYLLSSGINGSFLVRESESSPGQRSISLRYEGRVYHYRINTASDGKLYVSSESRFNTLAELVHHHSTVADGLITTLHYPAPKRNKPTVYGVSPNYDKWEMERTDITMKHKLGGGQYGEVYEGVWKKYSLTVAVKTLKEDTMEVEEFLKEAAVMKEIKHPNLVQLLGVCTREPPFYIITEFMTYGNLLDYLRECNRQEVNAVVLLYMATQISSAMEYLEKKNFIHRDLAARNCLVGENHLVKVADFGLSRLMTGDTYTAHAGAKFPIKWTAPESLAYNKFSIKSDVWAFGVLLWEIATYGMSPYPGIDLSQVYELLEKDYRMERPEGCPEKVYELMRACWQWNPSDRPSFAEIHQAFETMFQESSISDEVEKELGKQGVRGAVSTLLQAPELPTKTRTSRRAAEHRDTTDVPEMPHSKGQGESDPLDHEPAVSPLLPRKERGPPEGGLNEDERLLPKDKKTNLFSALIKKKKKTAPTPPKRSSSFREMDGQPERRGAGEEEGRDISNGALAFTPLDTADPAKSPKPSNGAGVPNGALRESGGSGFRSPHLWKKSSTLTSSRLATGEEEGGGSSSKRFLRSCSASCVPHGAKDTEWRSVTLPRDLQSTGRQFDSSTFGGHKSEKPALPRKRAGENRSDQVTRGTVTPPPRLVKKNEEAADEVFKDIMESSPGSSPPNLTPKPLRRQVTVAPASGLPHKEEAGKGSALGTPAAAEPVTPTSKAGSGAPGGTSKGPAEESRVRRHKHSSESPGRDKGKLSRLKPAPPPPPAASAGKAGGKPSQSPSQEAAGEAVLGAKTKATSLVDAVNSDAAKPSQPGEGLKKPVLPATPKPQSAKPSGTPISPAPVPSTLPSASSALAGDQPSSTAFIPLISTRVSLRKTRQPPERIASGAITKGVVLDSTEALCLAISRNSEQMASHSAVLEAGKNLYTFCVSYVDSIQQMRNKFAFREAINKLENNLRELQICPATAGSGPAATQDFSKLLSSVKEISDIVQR
Sequence of Bcr/Abl fusion protein (P11274 whole entry, further chain, the tested form may be a part): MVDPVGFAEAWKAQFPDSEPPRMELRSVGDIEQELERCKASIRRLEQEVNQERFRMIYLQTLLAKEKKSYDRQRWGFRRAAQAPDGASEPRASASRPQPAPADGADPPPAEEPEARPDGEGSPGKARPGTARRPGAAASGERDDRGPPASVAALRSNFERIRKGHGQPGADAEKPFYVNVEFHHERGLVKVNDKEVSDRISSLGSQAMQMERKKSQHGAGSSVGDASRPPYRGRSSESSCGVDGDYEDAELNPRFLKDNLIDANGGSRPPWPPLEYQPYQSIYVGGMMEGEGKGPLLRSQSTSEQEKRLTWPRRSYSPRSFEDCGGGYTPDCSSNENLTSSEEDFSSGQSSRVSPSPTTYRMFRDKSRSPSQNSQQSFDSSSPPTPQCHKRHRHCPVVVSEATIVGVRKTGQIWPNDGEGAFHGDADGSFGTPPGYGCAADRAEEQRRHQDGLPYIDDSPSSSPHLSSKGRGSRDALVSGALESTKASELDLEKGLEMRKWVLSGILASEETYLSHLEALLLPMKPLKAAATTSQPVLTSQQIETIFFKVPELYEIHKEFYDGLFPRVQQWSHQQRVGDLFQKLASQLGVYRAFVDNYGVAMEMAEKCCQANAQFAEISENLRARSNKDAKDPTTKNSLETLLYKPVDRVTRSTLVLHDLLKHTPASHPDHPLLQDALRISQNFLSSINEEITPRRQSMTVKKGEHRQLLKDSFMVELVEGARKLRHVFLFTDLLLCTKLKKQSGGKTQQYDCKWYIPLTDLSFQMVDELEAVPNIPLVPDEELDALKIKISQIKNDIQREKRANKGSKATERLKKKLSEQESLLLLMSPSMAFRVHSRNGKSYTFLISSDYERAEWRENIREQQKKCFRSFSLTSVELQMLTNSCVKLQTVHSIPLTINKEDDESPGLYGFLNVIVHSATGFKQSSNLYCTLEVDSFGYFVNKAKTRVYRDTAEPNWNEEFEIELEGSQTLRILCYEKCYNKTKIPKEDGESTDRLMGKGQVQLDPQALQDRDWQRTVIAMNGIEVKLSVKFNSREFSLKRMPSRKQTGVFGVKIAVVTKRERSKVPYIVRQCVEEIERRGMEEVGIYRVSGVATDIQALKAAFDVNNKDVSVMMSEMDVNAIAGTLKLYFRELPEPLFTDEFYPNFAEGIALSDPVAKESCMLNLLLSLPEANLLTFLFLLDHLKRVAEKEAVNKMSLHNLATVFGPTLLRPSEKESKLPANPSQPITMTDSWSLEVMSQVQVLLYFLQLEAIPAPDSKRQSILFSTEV

For orientation: IC50 means the concentration that inhibits the measured activity by half. By solubility is commonly meant the dissolved amount per volume that the medium holds. With `COc1ccc(-c2cnn3c(N)c(-c4ccccc4)c(NCCCN(C)C)nc23)cc1OC`, in the data set with LC-2-ad, the IC50 was over 10 µM. The compound further displayed a solubility at 24 h in data set [1] of over 175 µM.

One may read the bioavailability as dose-corrected exposure relative to a reference, in per cent. The Cmax is the maximum level reached in the sampled fluid or tissue. Broadly, the clearance is the rate of elimination divided by the concentration. A high value points to efficient removal. In general, Kp refers to the ratio of the level in a tissue or fluid to that in plasma or blood. In general, AUC refers to the area under the concentration-time curve, a measure of exposure. For orientation: half-life means the time in which the quantity being followed falls by half. On to `CN1C(C)(C)CC(Nc2nc3c(-c4ccc(C(=O)N5C[C@@H]6C[C@H]5CO6)cc4)cnn3c(N)c2-c2ccccc2)CC1(C)C`, for which, in [2], the bioavailability was 64%. The Cmax in data set [3] was 880 nM; in data set [14] it was 1600 nM. For the same compound, the result with Rattus norvegicus [4], in the data set with Rattus norvegicus [7] and in the data set with Rattus norvegicus [12] was Active. For the same compound, in [5], the clearance was found to be 54 mL/min/kg. The IC50 is 3.4 µM in the data set with LC-2-ad, 2.8 µM in data set [13] and 4.7 µM in data set [22]. Besides, the Kp at 24 h in data set [6] is 0.15; in data set [11], 0.13. The results for the exposure (AUC) at 24 h in [8] and in data set [21] were 6.8 µM·h and 2.6 µM·h, respectively. The Drug uptake result in data set [9] and in [19] was “Active” throughout. Further, the values for the half-life in data set [10] and in data set [16] were 2.5 h and 1.8 h, respectively. Further, the Activity entry in [15] is on record as “Non-Toxic”. Also, the inhibition result with Mus musculus [17] was “inactive”. In addition, the Vd in [18] amounted to 7.8 L/kg. The inhibition result in the data set on Mus musculus [20] was “Active”.

`COc1ccc(-c2cnn3c(N)c(-c4nccs4)c(OC4CCN(C)CC4)nc23)cc1OC`: the concentration for half-maximal inhibition (IC50) at Bcr/Abl fusion protein is over 10 µM; in the data set with BaF3, over 11 µM.

Turning to `CN1C(C)(C)CC(Nc2nc3c(-c4ccc(C(=O)N5CCN(S(C)(=O)=O)CC5)cc4)cnn3c(N)c2-c2ccccc2)CC1(C)C`, the bioavailability in [23] was 14%. Also, the IC50 in the data set with LC-2-ad was found to be 2.8 µM. In addition, the figures for the half-life in [24] and in [25] were 2.2 h and 1.6 h, respectively. In addition, in data set [26], the Vd came out at 11 L/kg. This compound also showed a clearance in data set [27] of 110 mL/min/kg. Also, the highest concentration (Cmax) in data set [28] amounted to 450 nM; in data set [31] it was 100 nM. Besides, the figures for the area under the curve (AUC) at 24 h in [29] and in data set [30] were 0.49 µM·h and 0.34 µM·h, respectively.

As for `COc1ccc(-c2cnn3c(N)c(-c4ccccc4)c(NC4CCN(C)CC4)nc23)cc1OC`, the 50% inhibitory concentration (IC50) with LC-2-ad was 5.5 µM. This compound also showed a solubility at 24 h in [1] of 85 µM (≈ 39 µg/mL).

On to `COC(=O)Nc1ccc(-c2c(OC3CCN(C)CC3)nc3c(-c4ccc(OC)c(OC)c4)cnn3c2N)cc1`, for which the results for the half-inhibitory concentration (IC50) on Bcr/Abl fusion protein and in the data set on BaF3 were 5.1 µM and 5 µM, respectively.
